According to patent US4740233A, “Substituted 1,2,4-triazolo[1,5-a]-pyrimidine-2-sulfonamides and compositions and methods of controlling undesired vegetation and suppressing the nitrification of ammonium nitrogen in soil” (The Dow Chemical Company, priority 1986, dated 1988):

Columns and labels:
[1] = test system: cotton; test: Postemergent control of plant species; format: in vivo, Gossypium spp.; conditions: for plant injury at 500 ppm: Gossypium hirsutum, post-emergence, 336 h, read-out: percent postemergent control
How it was run: (§1)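 Compounds in acetone mixed 1:1 with water containing 0.1% surfactant, sprayed postemergence on greenhouse plants at the 2-4 leaf stage. Growth reduction versus untreated plants of the same species scored after about two weeks.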

[2] = test system: rape; test: Postemergent control of plant species; format: in vivo, Brassica napus; conditions: for plant injury at 500 ppm: Brassica napus, post-emergence, 336 h, read-out: percent postemergent control
How it was run: as §1

[3] = test system: soybean; test: Postemergent control of plant species; format: in vivo, Glycine max.; conditions: for plant injury at 500 ppm: Glycine max, post-emergence, 336 h, read-out: percent postemergent control
How it was run: as §1

[4] = test system: sugar beet; test: Postemergent control of plant species; format: in vivo, Beta saccharifera; conditions: for plant injury at 500 ppm: Beta vulgaris, post-emergence, 336 h, read-out: percent postemergent control
How it was run: as §1

[5] = test system: cocklebur; test: Postemergent control of plant species; format: in vivo, Xanthium spp.; conditions: for pest or weed control at 500 ppm: Xanthium strumarium, post-emergence, 336 h, read-out: percent postemergent control
How it was run: as §1

[6] = test system: jimsonweed; test: Postemergent control of plant species; format: in vivo, Datura stramonium; conditions: for pest or weed control at 500 ppm: Datura stramonium, post-emergence, 336 h, read-out: percent postemergent control
How it was run: as §1

[7] = test system: annual morning glory; test: Postemergent control of plant species; format: in vivo, Ipomoea spp.; conditions: for pest or weed control at 500 ppm: Ipomoea, post-emergence, 336 h, read-out: percent postemergent control
How it was run: as §1

[8] = test system: pigweed; test: Postemergent control of plant species; format: in vivo, Amaranthus spp.; conditions: for pest or weed control at 500 ppm: Amaranthus retroflexus, post-emergence, 336 h, read-out: percent postemergent control
How it was run: as §1

[9] = test system: velvetleaf; test: Postemergent control of plant species; format: in vivo, Abutilon theophrasti; conditions: for pest or weed control at 500 ppm: Abutilon theophrasti, post-emergence, 336 h, read-out: percent postemergent control
How it was run: as §1

[10] = test system: corn; test: Postemergent control of plant species; format: in vivo, Zea mays; conditions: for plant injury at 500 ppm: Zea mays, post-emergence, 336 h, read-out: percent postemergent control
How it was run: as §1

[11] = test system: rice; test: Postemergent control of plant species; format: in vivo, Oryza sativa; conditions: for plant injury at 500 ppm: Oryza sativa, post-emergence, 336 h, read-out: percent postemergent control
How it was run: as §1

[12] = test system: sorghum; test: Postemergent control of plant species; format: in vivo, Sorghum vulgare; conditions: for plant injury at 500 ppm: Sorghum, post-emergence, 336 h, read-out: percent postemergent control
How it was run: as §1

[13] = test system: wheat; test: Postemergent control of plant species; format: in vivo, Triticum aestivum; conditions: for plant injury at 500 ppm: Triticum aestivum, post-emergence, 336 h, read-out: percent postemergent control
How it was run: as §1

[14] = test system: barnyardgrass; test: Postemergent control of plant species; format: in vivo, Echinochloa crusgalli; conditions: for pest or weed control at 500 ppm: Echinochloa crus-galli, post-emergence, 336 h, read-out: percent postemergent control
How it was run: as §1

[15] = test system: crabgrass; test: Postemergent control of plant species; format: in vivo, Digitaria spp.; conditions: for pest or weed control at 500 ppm: Digitaria sanguinalis, post-emergence, 336 h, read-out: percent postemergent control
How it was run: as §1

[16] = test system: yellow foxtail; test: Postemergent control of plant species; format: in vivo, Setaria lutescens; conditions: for pest or weed control at 500 ppm: Setaria, post-emergence, 336 h, read-out: percent postemergent control
How it was run: as §1

[17] = test system: johnson grass; test: Postemergent control of plant species; format: in vivo, Sorghum halepense; conditions: for pest or weed control at 500 ppm: Sorghum halepense, post-emergence, 336 h, read-out: percent postemergent control
How it was run: as §1

[18] = test system: wild oats; test: Postemergent control of plant species; format: in vivo, Avena fatua; conditions: for pest or weed control at 500 ppm: Avena fatua, post-emergence, 336 h, read-out: percent postemergent control
How it was run: as §1

[19] = test system: yellow nutsedge; test: Postemergent control of plant species; format: in vivo, Cyperus esculentus; conditions: for pest or weed control at 500 ppm: Cyperus, post-emergence, 336 h, read-out: percent postemergent control
How it was run: as §1

[20] = test system: rice; test: Control of aquatic plant species (paddy water); format: in vivo, Oryza sativa; conditions: nine days
How it was run: (§2)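 Plants transplanted at 1-2 inch stage into soil, flooded about 1 inch deep; acetone concentrate of compound injected into paddy water at varied volumes to set concentration. Percent control scored nine days after application.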

[21] = test system: barnyardgrass; test: Control of aquatic plant species (paddy water); format: in vivo, Echinochloa crusgalli; conditions: nine days
Description: In testing for such utility, the plant species to be tested were transplanted into 16 oz. containers into about 2 inches of soil when they were in the 1-2 inch stage and then flooded to a depth of about 1 inch. An acetone concentrate of the chemical to be tested was then injected into the paddy water, the volume injected being varied as desired to provide the desired concentration. Percent control was evaluated nine days after application.

[22] = test system: sprangletop; test: Control of aquatic plant species (paddy water); format: in vivo, Leptochloa filiformis; conditions: nine days
How it was run: as §2

[23] = test system: yellow nutsedge; test: Control of aquatic plant species (paddy water); format: in vivo, Cyperus esculentus; conditions: nine days
How it was run: as §2

[24] = test system: nitrification of ammonium nitrogen; test: Suppression of nitrification of ammonium nitrogen in soil; conditions: 27° C.
How it was run: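 Soil (20 g) moistened to its 1/3 bar tension value, mixed with test chemical and incubated sealed for two weeks at 27° C. Nitrate extracted with ammonium sulfate solution and measured by nitrate-specific ion electrode; value given as % NH4-N remaining.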

`Cc1cc(C)n2nc(S(=O)(=O)Nc3cccc(Cl)c3)nc2n1` [Compound 17] showed a plant injury at 500 ppm [1] of 15%, a plant injury at 500 ppm [2] of 70% and a plant injury at 500 ppm [3] of 15%. It also gave a plant injury at 500 ppm [4] of 10%, a pest or weed control at 500 ppm [5] of 10% and a pest or weed control at 500 ppm [6] of 0%. It also gave a pest or weed control at 500 ppm [7] of 0%, a pest or weed control at 500 ppm [8] of 50% and a pest or weed control at 500 ppm [9] of 70%. It also gave a plant injury at 500 ppm [10] of 20%, a plant injury at 500 ppm [11] of 0% and a plant injury at 500 ppm [12] of 40%. It also gave a plant injury at 500 ppm [13] of 0%, a pest or weed control at 500 ppm [14] of 0% and a pest or weed control at 500 ppm [15] of 0%. It also gave a pest or weed control at 500 ppm [16] of 20%, a pest or weed control at 500 ppm [17] of 60% and a pest or weed control at 500 ppm [18] of 0%. For the same compound, the pest or weed control at 500 ppm [19] was 0%, the pest or weed control at 4000 g/ha ([20]; Oryza sativa, 216 h, 4.0 Kg/Ha, read-out: Percent control) was 97% and the pest or weed control at 4000 g/ha ([21]; Echinochloa crus-galli, 216 h, 4.0 Kg/Ha, read-out: Percent control) was 40%. For the same compound, the pest or weed control at 4000 g/ha ([22]; Leptochloa filiformis, 216 h, 4.0 Kg/Ha, read-out: Percent control) was 0%, the pest or weed control at 4000 g/ha ([23]; Cyperus, 216 h, 4.0 Kg/Ha, read-out: Percent control) was 90% and the “% NH4-N Remaining After 2 Weeks Incubation” value ([24]; 0.01 ppm) was 0%. The “% NH4-N Remaining After 2 Weeks Incubation” value ([24]; 0.1 ppm) was 1%, the “% NH4-N Remaining After 2 Weeks Incubation” value ([24]; 1 ppm) was 38% and the “% NH4-N Remaining After 2 Weeks Incubation” value ([24]; 10 ppm) was 80%.
With `Cc1cc(C)n2nc(S(=O)(=O)Nc3c(C)cccc3C)nc2n1` [Compound 32, 5,7-dimethyl-N-(2,6-dimethylphenyl)-1,2,4-triazolo[1,5-a]pyrimidine-2-sulfonamide] the plant injury at 500 ppm [1] was 20%, the plant injury at 500 ppm [2] was 0% and the plant injury at 500 ppm [3] was 15%. The plant injury at 500 ppm [4] was 30%, the pest or weed control at 500 ppm [5] was 15% and the pest or weed control at 500 ppm [6] was 60%. The pest or weed control at 500 ppm [7] was 0%, the pest or weed control at 500 ppm [8] was 0% and the pest or weed control at 500 ppm [9] was 50%. It also gave a plant injury at 500 ppm [10] of 0%, a plant injury at 500 ppm [11] of 10% and a plant injury at 500 ppm [12] of 0%. For the same compound, the plant injury at 500 ppm [13] was 30%, the pest or weed control at 500 ppm [14] was 0% and the pest or weed control at 500 ppm [15] was 10%. The pest or weed control at 500 ppm [16] was 10%, the pest or weed control at 500 ppm [17] was 95% and the pest or weed control at 500 ppm [18] was 0%. The pest or weed control at 500 ppm [19] was 0%, the pest or weed control at 500 g/ha ([20]; Oryza sativa, 216 h, 0.5 Kg/Ha, read-out: Percent control) was 93% and the pest or weed control at 500 g/ha ([21]; Echinochloa crus-galli, 216 h, 0.5 Kg/Ha, read-out: Percent control) was 97%. The pest or weed control at 500 g/ha ([22]; Leptochloa filiformis, 216 h, 0.5 Kg/Ha, read-out: Percent control) was 95%, the pest or weed control at 500 g/ha ([23]; Cyperus, 216 h, 0.5 Kg/Ha, read-out: Percent control) was 95% and the “% NH4-N Remaining After 2 Weeks Incubation” value ([24]; 0.01 ppm) was 0%. The “% NH4-N Remaining After 2 Weeks Incubation” value ([24]; 0.1 ppm) was 33%, the “% NH4-N Remaining After 2 Weeks Incubation” value ([24]; 1 ppm) was 82% and the “% NH4-N Remaining After 2 Weeks Incubation” value ([24]; 10 ppm) was 100%.
Work on `Cc1nc2nc(S(=O)(=O)Nc3c(Cl)cccc3Cl)nn2c2c1CCC2` [Compound 108, 6,7-cyclopentano-5-methyl-N-(2,6-dichlorophenyl)-1,2,4-triazolo[1,5-a]pyrimidine-2-sulfonamide] yielded a percent postemergent control ([1]; 500 ppm) of 70%, a percent postemergent control ([2]; 500 ppm) of 40% and a percent postemergent control ([3]; 500 ppm) of 75%. For the same compound, the percent postemergent control ([4]; 500 ppm) was 70%, the percent postemergent control ([5]; 500 ppm) was 80% and the percent postemergent control ([6]; 500 ppm) was 30%. The percent postemergent control ([7]; 500 ppm) was 10%, the percent postemergent control ([8]; 500 ppm) was 0% and the percent postemergent control ([9]; 500 ppm) was 90%. For the same compound, the percent postemergent control ([10]; 500 ppm) was 80%, the percent postemergent control ([11]; 500 ppm) was 0% and the percent postemergent control ([12]; 500 ppm) was 80%. It also gave a percent postemergent control ([13]; 500 ppm) of 60%, a percent postemergent control ([14]; 500 ppm) of 100% and a percent postemergent control ([15]; 500 ppm) of 0%. It also gave a percent postemergent control ([16]; 500 ppm) of 0%, a percent postemergent control ([17]; 500 ppm) of 100% and a percent postemergent control ([18]; 500 ppm) of 0%. It also gave a percent postemergent control ([19]; 500 ppm) of 35%, a Percent control ([20]; 1.0 Kg/Ha) of 97% and a Percent control ([21]; 1.0 Kg/Ha) of 97%. For the same compound, the Percent control ([22]; 1.0 Kg/Ha) was 97%, the Percent control ([23]; 1.0 Kg/Ha) was 90% and the “% NH4-N Remaining After 2 Weeks Incubation” value ([24]; 0.01 ppm) was 43%. For the same compound, the “% NH4-N Remaining After 2 Weeks Incubation” value ([24]; 0.1 ppm) was 69%, the “% NH4-N Remaining After 2 Weeks Incubation” value ([24]; 1 ppm) was 84% and the “% NH4-N Remaining After 2 Weeks Incubation” value ([24]; 10 ppm) was 90%.
